Source: patent US9321756B2, “Azole compounds as PIM inhibitors” (priority 2011, dated 2016)
Read-outs that look alike come from different tables or passages of the source.

Key:
[1] = tested on: Pim-2 stably transfected U2OS human osteogenic sarcoma line; test: Pim cell assay U2OS (phospho-BAD normalized against total BAD), Pim-2 transfected; assay type: cell-based; settings: Homo sapiens; U2OS cells, Pim-2 transfected; read-out: U2OS Pim2_Cell_IC50
[2] = target: full length recombinant Pim-2 (Homo sapiens (Human), UniProt Q9P1W9); test: Pim enzyme assay (HTRF, phosphorylation of biotinylated-BAD (S112) peptide), Pim-2; assay type: biochemical; settings: Pim-2 enzyme assay; read-out: Pim2_IC50
Sequence of full length recombinant Pim-2 (Q9P1W9 whole entry): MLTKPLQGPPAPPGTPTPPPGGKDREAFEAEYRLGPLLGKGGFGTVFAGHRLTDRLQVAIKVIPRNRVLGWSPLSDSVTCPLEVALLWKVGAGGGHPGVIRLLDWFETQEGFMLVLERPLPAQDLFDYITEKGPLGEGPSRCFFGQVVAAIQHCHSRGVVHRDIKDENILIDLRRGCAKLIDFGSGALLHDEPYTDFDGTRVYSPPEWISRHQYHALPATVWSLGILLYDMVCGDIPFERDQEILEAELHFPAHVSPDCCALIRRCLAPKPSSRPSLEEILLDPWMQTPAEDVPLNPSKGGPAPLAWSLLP

[3] = target: full length recombinant Pim-1 (Homo sapiens (Human), UniProt P11309); test: Pim enzyme assay (HTRF, phosphorylation of biotinylated-BAD (S112) peptide), Pim-1; assay type: biochemical; settings: Pim-1 enzyme assay; read-out: Pim_1_IC50
Sequence of full length recombinant Pim-1 (P11309 whole entry): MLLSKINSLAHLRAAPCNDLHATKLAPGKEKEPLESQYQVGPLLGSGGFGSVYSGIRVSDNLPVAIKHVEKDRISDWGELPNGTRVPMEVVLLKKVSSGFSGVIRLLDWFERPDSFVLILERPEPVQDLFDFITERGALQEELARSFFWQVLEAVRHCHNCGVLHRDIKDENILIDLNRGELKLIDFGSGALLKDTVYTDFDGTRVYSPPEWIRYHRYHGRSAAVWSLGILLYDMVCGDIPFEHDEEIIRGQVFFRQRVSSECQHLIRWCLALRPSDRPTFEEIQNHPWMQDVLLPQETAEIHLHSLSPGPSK

[4] = tested on: Pim-1 stably transfected U2OS human osteogenic sarcoma line; test: Pim cell assay U2OS (phospho-BAD normalized against total BAD), Pim-1 transfected; assay type: cell-based; settings: Homo sapiens, U2OS
[5] = target: full length recombinant Pim-3 (Homo sapiens (Human), UniProt Q86V86); test: Pim enzyme assay (HTRF, phosphorylation of biotinylated-BAD (S112) peptide), Pim-3; assay type: biochemical; settings: Pim-3 enzyme assay; read-out: Pim3 IC50
In short: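 Full-length recombinant Pim-3 phosphorylated biotinylated BAD (S112) peptide in 60 mM Hepes pH 7.0, 0.05% BSA, 2 mM DTT for 1 h 30 min at 22 °C. After EDTA stop, HTRF was read with Eu anti-phospho-BAD and streptavidin-APC. IC50 came from 4-parameter logistic fit of percent-of-control values.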

[6] = read-out: U2OS Pim1_Cell_IC50, U2OS cells, Pim-1 transfected

Row | Structure (SMILES) | IC50 [1] [nM] | IC50 [2] [nM] | IC50 [3] [nM] | IC50 ([4]; read-out: U2OS Pim1_Cell_IC50) [nM] | IC50 [5] [nM] | IC50 [4, 6] [nM]
1 | Cc1nnc(-c2ccc3[nH]cc(-c4cccc(OC(C)C)n4)c3c2)o1 [Example 42, 2-(3-(6-isopropoxypyridin-2-yl)-1H-indol-5-yl)-5-methyl-1,3,4-oxadiazole] | 15600 | 38.6 | 21.2 | 273 | 10 | 
2 | CC(C)Nc1nnc(-c2ccc3[nH]cc(-c4cncc(C5CC5)n4)c3c2)o1 [Example 46, 5-(3-(6-cyclopropylpyrazin-2-yl)-1H-indol-5-yl)-N-isopropyl-1,3,4-oxadiazol-2-amine] | 827 | 4.25 | 1.39 | 32.1 | 0.498 | 
3 | c1cc2[nH]cc(-c3cncc(C4CC4)n3)c2cc1-c1nnc(NC2CC2)o1 [Example 49, N-cyclopropyl-5-(3-(6-cyclopropylpyrazin-2-yl)-1H-indol-5-yl)-1,3,4-oxadiazol-2-amine] | 2680 | 7.64 | 3.43 | 83.4 | 1.82 | 
4 | CN1CCN(c2cccc(-c3c[nH]c4ccc(-c5nnc(N)o5)cc34)n2)CC1 [Example 75, 5-(3-(6-(4-methyl-1-piperazinyl)-2-pyridinyl)-1H-indol-5-yl)-1,3,4-oxadiazol-2-amine] | 2350 | 6.87 | 3.82 | 173 | 2.54 | 
5 | CC(C)Oc1cncc(-c2c[nH]c3ccc(-c4nnc(N)o4)cc23)n1 [Example 76, 5-(3-(6-(1-methylethoxy)-2-pyrazinyl)-1H-indol-5-yl)-1,3,4-oxadiazol-2-amine] | 636 | 5.18 | 5.59 | 35.8 | 2.47 | 
6 | Nc1nnc(-c2ccc3[nH]cc(-c4cccc(-n5cccn5)n4)c3c2)o1 [Example 77, 5-(3-(6-(1H-pyrazol-1-yl)-2-pyridinyl)-1H-indol-5-yl)-1,3,4-oxadiazol-2-amine] | 1890 | 13.7 | 11.9 |  | 4.13 | 112
7 | Nc1nnc(-c2ccc3[nH]cc(-c4cccc(F)c4F)c3c2)o1 [Example 78, 5-(3-(2,3-difluorophenyl)-1H-indol-5-yl)-1,3,4-oxadiazol-2-amine] | 18700 | 164 | 103 | 1110 | 54.3 | 
8 | CC(C)Cn1cc(-c2c[nH]c3ccc(-c4nnc(N)o4)cc23)cn1 [Example 80, 5-(3-(1-(2-methylpropyl)-1H-pyrazol-4-yl)-1H-indol-5-yl)-1,3,4-oxadiazol-2-amine] | 3660 | 78 | 47 | 142 | 67.1 | 
9 | CC(C)Oc1ccc(F)c(-c2c[nH]c3ccc(-c4nnc(N)o4)cc23)c1 [Example 83, 5-(3-(2-fluoro-5-(1-methylethoxy)phenyl)-1H-indol-5-yl)-1,3,4-oxadiazol-2-amine] | 18500 | 193 | 59.3 |  | 36.2 | 725
10 | CC(C)Oc1cccc(-c2c[nH]c3ccc(-c4nnc(N)o4)cc23)n1 [Example 87, 5-(3-(6-(1-methylethoxy)-2-pyridinyl)-1H-indol-5-yl)-1,3,4-oxadiazol-2-amine] | 823 | 5.46 | 4.15 | 45.1 | 1.11 | 
11 | Nc1nnc(-c2ccc3[nH]cc(-c4cncc(N5CCC(F)(F)C5)n4)c3c2)o1 [Example 88, 5-(3-(6-(3,3-difluoro-1-pyrrolidinyl)-2-pyrazinyl)-1H-indol-5-yl)-1,3,4-oxadiazol-2-amine] | 464 | 6.43 | 1.92 | 40.7 | 1.6 | 
12 | Nc1nnc(-c2ccc3[nH]cc(-c4cncc(N5CCCCC5)n4)c3c2)o1 [Example 89, 5-(3-(6-(1-piperidinyl)-2-pyrazinyl)-1H-indol-5-yl)-1,3,4-oxadiazol-2-amine] | 692 | 4.77 | 2.11 |  | 1.83 | 59.9
13 | Nc1nnc(-c2ccc3[nH]cc(-c4cncc(N5CCOCC5)n4)c3c2)o1 [Example 90, 5-(3-(6-(4-morpholinyl)-2-pyrazinyl)-1H-indol-5-yl)-1,3,4-oxadiazol-2-amine] | 5420 | 13.4 | 8.91 | 374 | 6.46 | 
14 | C[C@H]1COCCN1c1ccnc(-c2c[nH]c3ccc(-c4nnc(N)o4)cc23)n1 [Example 91, 5-(3-(4-((3S)-3-methyl-4-morpholinyl)-2-pyrimidinyl)-1H-indol-5-yl)-1,3,4-oxadiazol-2-amine] | 1050 | 1.07 | 1.96 | 221 | 2.21 | 
15 | Nc1nnc(-c2ccc3[nH]cc(-c4nccc(C5CC5)n4)c3c2)o1 [Example 94, 5-(3-(4-cyclopropyl-2-pyrimidinyl)-1H-indol-5-yl)-1,3,4-oxadiazol-2-amine] | 280 | 0.984 | 5.19 |  | 0.998 | 75.2
16 | CC1CCCN1c1ccnc(-c2c[nH]c3ccc(-c4nnc(N)o4)cc23)n1 (centres unmarked) [Example 97, 5-(3-(4-(2-methyl-1-pyrrolidinyl)-2-pyrimidinyl)-1H-indol-5-yl)-1,3,4-oxadiazol-2-amine] | 315 | 1.7 | 6.42 | 100 | 1.22 | 
17 | Nc1nnc(-c2ccc3[nH]cc(-c4cncc(C5CC5)n4)c3c2)o1 [Example 98, 5-(3-(6-cyclopropyl-2-pyrazinyl)-1H-indol-5-yl)-1,3,4-oxadiazol-2-amine] | 721 | 4.85 | 4.34 | 85.7 | 1.59 | 
18 | Nc1nnc(-c2ccc3[nH]cc(-c4cncc(O[C@@H]5CCCNC5)n4)c3c2)o1 [Example 99, 5-(3-(6-((3R)-3-piperidinyloxy)-2-pyrazinyl)-1H-indol-5-yl)-1,3,4-oxadiazol-2-amine] | > 31600 | 12.9 | 6.77 |  | 12.4 | 12200
19 | Nc1nnc(-c2ccc3[nH]cc(-c4cncc(NCC5CC5)n4)c3c2)o1 [Example 100, 6-(5-(5-amino-1,3,4-oxadiazol-2-yl)-1H-indol-3-yl)-N-(cyclopropylmethyl)-2-pyrazinamine] | 551 | 2.07 | 1.16 | 41.7 | 0.668 | 
20 | CC(C)Nc1cncc(-c2c[nH]c3ccc(-c4nnc(N)o4)cc23)n1 [Example 101, 6-(5-(5-amino-1,3,4-oxadiazol-2-yl)-1H-indol-3-yl)-N-(1-methylethyl)-2-pyrazinamine] | 809 | 4.03 | 1.5 |  | 0.901 | 66.4
21 | CC(C)Nc1ccnc(-c2c[nH]c3ccc(-c4nnc(N)o4)cc23)n1 [Example 103, 2-(5-(5-amino-1,3,4-oxadiazol-2-yl)-1H-indol-3-yl)-N-(1-methylethyl)-4-pyrimidinamine] | 1220 | 2.24 | 6.9 | 739 | 1.67 | 
22 | Nc1nnc(-c2ccc3[nH]cc(-c4nccc(Oc5ccccc5)n4)c3c2)o1 [Example 106, 5-(3-(4-phenoxy-2-pyrimidinyl)-1H-indol-5-yl)-1,3,4-oxadiazol-2-amine] | 1190 | 6.39 | 15.2 | 155 | 5.69 | 
